The record followed here is paper PMC8112869, “Therapeutic inhibition of keratinocyte TRPV3 sensory channel by local anesthetic dyclonine” (eLife, 2021).

SMILES strings stand for the structures.

Broadly, the EC50 is the midpoint of the concentration-response curve. In general, IC50 refers to the midpoint of a concentration-inhibition curve. As a reminder, the inhibition is the percentage by which the read-out fell short of the control.

In one assay the target is T1, mouse TRPV3 (Mus musculus, UniProt Q8K424).
T1 sequence (Q8K424 1-791): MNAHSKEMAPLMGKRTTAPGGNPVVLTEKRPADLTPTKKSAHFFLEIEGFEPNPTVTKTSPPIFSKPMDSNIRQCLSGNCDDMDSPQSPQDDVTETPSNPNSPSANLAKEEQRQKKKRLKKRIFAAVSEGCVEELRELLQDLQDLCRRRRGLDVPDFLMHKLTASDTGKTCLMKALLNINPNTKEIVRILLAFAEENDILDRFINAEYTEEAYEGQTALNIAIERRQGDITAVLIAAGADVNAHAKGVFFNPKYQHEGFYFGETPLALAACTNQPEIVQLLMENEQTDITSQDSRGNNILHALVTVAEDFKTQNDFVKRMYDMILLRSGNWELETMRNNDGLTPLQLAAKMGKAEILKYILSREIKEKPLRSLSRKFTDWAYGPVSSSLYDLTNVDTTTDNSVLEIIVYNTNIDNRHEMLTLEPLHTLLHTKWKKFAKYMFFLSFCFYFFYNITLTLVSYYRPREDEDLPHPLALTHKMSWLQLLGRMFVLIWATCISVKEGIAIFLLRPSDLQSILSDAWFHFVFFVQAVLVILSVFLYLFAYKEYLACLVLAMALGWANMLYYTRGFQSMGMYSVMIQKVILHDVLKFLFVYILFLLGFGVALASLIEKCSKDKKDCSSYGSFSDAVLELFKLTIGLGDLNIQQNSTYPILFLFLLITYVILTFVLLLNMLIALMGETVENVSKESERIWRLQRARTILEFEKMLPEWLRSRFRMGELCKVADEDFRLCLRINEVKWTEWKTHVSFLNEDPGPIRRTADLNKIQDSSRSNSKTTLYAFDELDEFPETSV
Nature of the assay: cell-based. As to conditions: for EC50: EC50 of 2-APB for TRPV3 activation; for TRPV3 currents response, of control level: 100 µM 2-APB, –60 mV, after sensitization. An excerpt:
The WT mouse TRPV3 (mTRPV3), human TRPV3 (hTRPV3), rat TRPV1, rat TRPV2, rat TRPM8, and mouse TRPA1 cDNAs were generously provided by Dr. Feng Qin (State University of New York at Buffalo, Buffalo, USA). The GFP-mTRPV3 WT and the mutants (mTRPV3-G573S and mTRPV3-G573C) in pcDNA4/TO vector were gifts from Dr. Michael X Zhu (The University of Texas Health Science Center at Houston, Houston, USA). The WT fTRPV3 was kindly provided by Dr. Makoto Tominaga (Department of Physiological Sciences, SOKENDAI, Okazaki, Japan). All mutations were made using the overlap-extension polymerase chain reaction method as previously described ([Tian et al., 2019]). The resulting mutations were then verified by DNA sequencing. HEK 293T and T-Rex 293 cells were grown in Dulbecco’s modified Eagle’s medium (DMEM, Thermo Fisher Scientific, MA) containing 4.5 mg/ml glucose, 10% heat-inactivated fetal bovine serum (FBS), 50 units/ml penicillin, and […], and were incubated at 37°C in a humidified incubator gassed with 5% CO2. For T-Rex 293, blasticidin S (10 μg/ml) was also included. Cells grown into ~80% confluence were transfected with the desired DNA constructs using either the standard calcium phosphate precipitation method or lipofectamine 2000 (Invitrogen, Carlsbad, CA) following the protocol provided by the manufacturer. Transfected HEK 293T cells were reseeded on 12 mm round glass coverslips coated by poly-L-lysine. Experiments took place ~12–24 hr after transfection.
Conventional whole-cell and excised patch-clamp recording methods were used. For the recombinant expressing system, green fluorescent EGFP was used as a surface marker for gene expression. Recording pipettes were pulled from borosilicate glass capillaries (World Precision Instruments) and fire-polished to a resistance between 2 and 4 MΩ when filled with internal solution containing (in mM) 140 CsCl, 2.0 MgCl2, 5 EGTA, and 10 HEPES, pH 7.4 (adjusted with CsOH). Bath solution contained (in mM): 140 NaCl, 5 KCl, 3 EGTA, and 10 HEPES, pH 7.4 adjusted with NaOH. For recordings in keratinocytes, the bath saline consisted of (in mM) 140 NaCl, 5 KCl, 2 MgCl2, 2 CaCl2, 10 glucoses, and 10 HEPES, pH 7.4 adjusted with NaOH, and the pipette solution contained (in mM) 140 CsCl, 5 EGTA, and 10 HEPES, pH 7.3 adjusted with CsOH. For single-channel recordings, the pipette solution and bath solution were symmetrical and contained (in mM) 140 NaCl, 5 KCl, 3 EGTA, and 10 HEPES, pH 7.4. Isolated cells were voltage clamped and held at –60 mV using an EPC10 amplifier with the Patchmaster software (HEKAElectronics, Lambrecht, Germany). For a subset of recordings, currents were amplified using an Axopatch 200B amplifier (Molecular Devices, Sunnyvale, CA) and recorded through a BNC-2090/MIO acquisition system (National Instruments, Austin, TX) using QStudio developed by Dr. Feng Qin at State University of New York at Buffalo. Whole-cell recordings were typically sampled at 5 kHz and filtered at 1 kHz, and single-channel recordings were sampled at 25 kHz and filtered at 10 kHz. The compensation of pipette series resistance and capacitance was compensated using the built-in circuitry of the amplifier (>80%) to reduce voltage errors. Exchange of external solution was performed using a gravity-driven local perfusion system. […] Dyclonine hydrochloride, MTSET and carvacrol were purchased from MCE (MedChemExpress). Unless otherwise noted, all chemicals were purchased from Sigma (Millipore Sigma, St. Louis, MO). Water-insoluble reagents were dissolved in pure ethanol or DMSO to make a stock solution and diluted into the recording solution at the desired final concentrations before the experiment. […] In the scratching behavior experiments, carvacrol was first dissolved in 10% ethanol and then diluted in normal saline before administration.

In assay [1] the test system is T-Rex 293 cells expressing WT TRPV3. Put plainly: Cell death analysis by flow cytometry (propidium iodide), cells expressing WT TRPV3. Format: cell-based, Homo sapiens. Here is the method: T-Rex 293 cells were grown in DMEM containing 4.5 mg/ml glucose, 10% (vol/vol) FBS, 50 units/ml penicillin, 50 μg/ml streptomycin, and blasticidin S (10 μg/ml), and were incubated at 37°C in a humidified incubator gassed with 5% CO2. Transfections were performed in wells of a 24-well plate using lipofectamine 2000 (Invitrogen). […] Expression of GFP fluorescence detected by an epifluorescence microscope was used as an indicator of gene expression. After treatments with the compounds for 12 hr, cells were collected, washed twice with PBS, resuspended, and then dyed with propidium iodide (PI, Thermo Fisher Scientific) in the dark according to the manufacturer’s instructions. The membrane integrity of the cells was assessed using a BD FACSCelesta flow cytometer equipped with BD Accuri C6 software (BD Biosciences, USA).
For orientation: A flow cytometer gives signals particle by particle.

On to `NCCOB(c1ccccc1)c1ccccc1` [2-APB, 2-aminoethoxydiphenyl borate], for which the “initial TRPV3 current” value at mouse TRPV3 (100 μM 2-APB without dyclonine) is given as 86.43 ± 5.9 pA/pF. The EC50 on mouse TRPV3 (with 3 μM dyclonine) turned out to be 22 ± 0.86 µM; on mouse TRPV3 (without dyclonine, after full sensitization) it was 22.93 ± 0.02 µM. Further, the “repetitions to reach full sensitization level” value at mouse TRPV3 (repeated 100 μM 2-APB alone) is reported as “approximately eight”. Also, the “Hill coefficient nH of 2-APB activation” value on mouse TRPV3 (with 3 μM dyclonine) is listed as 1.7 ± 0.1; at mouse TRPV3 (without dyclonine), 1.6 ± 0.1. The cell death ratio in assay [1] (2-APB (30 μM) alone, 12 hr, averaged from seven experiments) is 43.73% ± 3.46%.
As for `CCCCOc1ccc(C(=O)CCN2CCCCC2)cc1` [dyclonine], at mouse TRPV3, the IC50 was 3.2 ± 0.24 µM. Further, the results for the “TRPV3 currents response, of control level” value on mouse TRPV3 (5 µM dyclonine) and at mouse TRPV3 (10 µM dyclonine) were 30% ± 2% and 15% ± 3%, respectively. Besides, the “initial TRPV3 current” value on mouse TRPV3 (100 μM 2-APB with 5 μM dyclonine) is reported as 31.12 ± 2.86 pA/pF. Moreover, the “Hill coefficient nH of inhibition of TRPV3 currents” value on mouse TRPV3 (2-APB-evoked, WT mouse TRPV3) is recorded as 2.2 ± 0.32. Also, the inhibition at 10 µM at mouse TRPV3 (HEK-293T, read-out: inhibition of TRPV3 current (reduction in current amplitude)) came to 87%. Moreover, the “repetitions to reach the current level of full sensitization” value on mouse TRPV3 (repeated 100 μM 2-APB with 5 μM dyclonine) was ~ 16 repetitions. Further, the cell death ratio in assay [1] (dyclonine (50 μM) added to 2-APB (30 μM), averaged) is reported as 9.12% ± 1.42%.
